Laboratory results from PMC7817688, “Identification of 3-chymotrypsin like protease (3CLPro) inhibitors as potential anti-SARS-CoV-2 agents” (Communications Biology, 2021).
Several values for one entry are separate records, joined by “and”; a condition that tells them apart may be missing. Equal values may be shown once. Numbered stars: 1 amine (or outer) side, 2 acyl side, 3 side chain; on linkers, the order of the positions; unused ones are H or OH. Bridge positions count the residues as written; N and C are the ends. Square brackets hold non-standard residues; d marks the D form. Peptide text beside a SMILES is read from it. * marks the point of attachment. hTyr(3S-OH,4S-OH,3'-OSO3H) = N[C@H](C(=O)O)[C@H](O)[C@@H](O)c1ccc(O)c(OS(=O)(=O)O)c1; Orn(4R-OH,5R-OH) = O=C([C@H](C[C@@H](O)[C@@H](O)N[*:3])N[*:1])[*:2]; Pro(3S-OH,4S-Me) = C[C@H]1CN[C@H](C(=O)O)[C@H]1O; X1 = CCCCCOc1ccc(-c2cc(-c3ccc(C(=O)*)cc3)no2)cc1; Gln(3R-OH) = NC(=O)C[C@@H](O)[C@H](N)C(=O)O; Hyp = O=C(O)[C@@H]1C[C@@H](O)CN1

Target: SARS-CoV-2 3CLpro enzyme (Severe acute respiratory syndrome coronavirus 2, UniProt P0DTD1)
Experiment: biochemical
Settings: for percent enzymatic activity, individual values / percent enzymatic activity, AVG / inhibition at 50 µM: 50 µM drug; for percent enzymatic activity, individual values / percent enzymatic activity, AVG: DMSO treated control = 100%, data of Figs. 2-4; for percent enzymatic activity, AVG: mean of 3 values; for inhibitory effect towards 3CLpro enzymatic activity (in words): in vitro enzymatic assay at the tested doses; for activity at 0.097656 µM / activity at 0.390625 µM / activity at 0.78125 µM / activity at 3.125 µM / activity at 12.5 µM / activity at 1.5625 µM / activity at 6.25 µM / activity at 0.195313 µM / activity at 100 µM: read-out: % activity; for IC50: drugs 0 to 100 µM, 50 µM substrate, non-linear four variable fit, read-out: IC50 for SARS-CoV-2 3CL protease; for inhibition at 50 µM / inhibition at 100 µM: read-out: inhibition of 3CLpro enzymatic activity; for inhibition at 100 µM: 100 µM drug
[1] = dose-dependent study, 0.097656 uM, individual values
[2] = dose-dependent study, 0.195313 uM, individual values
[3] = dose-dependent study, 0.390625 uM, individual values
[4] = dose-dependent study, 0.78125 uM, individual values
[5] = dose-dependent study, 1.5625 uM, individual values
[6] = dose-dependent study, 3.125 uM, individual values
[7] = dose-dependent study, 6.25 uM, individual values
[8] = dose-dependent study, 12.5 uM, individual values
[9] = dose-dependent study, 25 uM, individual values
[10] = dose-dependent study, 50 uM, individual values
[11] = dose-dependent study, 100 uM, individual values
[12] = dose-dependent study, 0.048828 uM, individual values

Maraviroc
percent enzymatic activity, individual values: 91.5462% and 88.779% and 142.739%

Cc1cccc(C)c1OCC(=O)N[C@@H](Cc1ccccc1)[C@@H](O)C[C@H](Cc1ccccc1)NC(=O)[C@H](C(C)C)N1CCCNC1=O [Lopinavir]
percent enzymatic activity, individual values: 75.576% and 76.4977% and 84.3318% | percent enzymatic activity, AVG: 78.8018% | inhibitory effect towards 3CLpro enzymatic activity (in words): did not exhibit any 3CLpro inhibitory activity

CC(C)Nc1cccnc1N1CCN(C(=O)c2cc3cc(NS(C)(=O)=O)ccc3[nH]2)CC1 [Delavirdine (mesylate), Delavirdine]
percent enzymatic activity, individual values: 93.4344% and 97.6243% and 104.328% | percent enzymatic activity, AVG: 98.4623%

Cc1cc(CCCOc2c(C)cc(-c3noc(C(F)(F)F)n3)cc2C)on1 [Pleconaril]
percent enzymatic activity, individual values: 89.2446% and 86.7306% and 85.4737% | percent enzymatic activity, AVG: 87.1496%

COc1cnc(-n2cnc(C)n2)c2[nH]cc(C(=O)C(=O)N3CCN(C(=O)c4ccccc4)CC3)c12 [Temsavir]
percent enzymatic activity, individual values: 93.8534% and 98.0433% and 100.976% | percent enzymatic activity, AVG: 97.6243%

CCC[C@@]1(CCc2ccccc2)CC(O)=C([C@H](CC)c2cccc(NS(=O)(=O)c3ccc(C(F)(F)F)cn3)c2)C(=O)O1 [Tipranavir]
percent enzymatic activity, individual values: 30.4148% and 38.7097% and 37.3272% | percent enzymatic activity, AVG: 35.4839% | % activity [1]: 82.4284% (2×) and 99.6504% | activity at 0.097656 µM [1]: 101% | % activity [2]: 93.9114% and 73.379% and 92.2647% and 99.6504% | % activity [3]: 86.3629% and 90.6909% and 88.1724% | activity at 0.390625 µM [3]: 104% | % activity [4]: 90.2974% and 88.7236% and 98.607% | activity at 0.78125 µM [4]: 109% | % activity [5]: 116.346% and 88.7236% and 94.6254% | % activity [6]: 93.8385% and 93.4451% and 104.346% | activity at 3.125 µM [6]: 110% | % activity [7]: 117.389% and 86.7564% and 86.3629% | % activity [8]: 89.5105% and 88.3302% and 98.0853% | activity at 12.5 µM [8]: 107% | % activity [9]: 75.6509% and 84.3957% and 93.4451% and 63.6511% | % activity [10]: 69.8379% and 61.9688% and 53.2165% | activity at 50 µM [10]: 57.4% | % activity [11]: 47.9992% and 60.395% and 69.8379% and 42.7819% | IC50: 27.7 µM | inhibitory effect towards 3CLpro enzymatic activity (in words): partial inhibitory effect | inhibition at 50 µM: 64% | inhibition at 100 µM: 50%

O=C(O)[C@H]1C2CCC(CC2)[C@@H]1Nc1nc(-c2c[nH]c3ncc(F)cc23)ncc1F [Pimodivir]
percent enzymatic activity, individual values (listed as Pimodvir): 92.1775% and 98.4623% and 116.898% | percent enzymatic activity, AVG: 102.513%

CO[C@@H]1[C@H](OC(=O)/C=C/C=C/C=C/C=C/C(=O)O)CC[C@]2(CO2)[C@H]1[C@@]1(C)O[C@@H]1CC=C(C)C [Fumagillin]
percent enzymatic activity, individual values: 70.8091% and 76.2559% and 71.647% | percent enzymatic activity, AVG: 72.904%

COc1cc2c(cc1Cc1cccc(Cl)c1F)c(=O)c(C(=O)O)cn2[C@H](CO)C(C)C [Elvitegravir]
percent enzymatic activity, individual values: 78.3509% and 80.4458% and 91.3395% | percent enzymatic activity, AVG: 83.3787%

Cc1cnc(C(=O)N[C@H]2CCCCC/C=C\[C@@H]3C[C@@]3(C(=O)NS(=O)(=O)C3CC3)NC(=O)[C@@H]3C[C@@H](Oc4nc5ccccc5c5ccccc45)CN3C2=O)cn1 [Paritaprevir]
percent enzymatic activity, individual values: 25.5475% and 31.3869% and 37.2263% | percent enzymatic activity, AVG: 31.3869% | % activity [1]: 101.809% and 115.049% | activity at 0.097656 µM [1]: 101% | % activity [2]: 132.87% and 115.668% | % activity [3]: 114.628% and 102.678% | activity at 0.390625 µM [3]: 113% | % activity [4]: 108.219% and 103.297% | activity at 0.78125 µM [4]: 108% | % activity [5]: 121.853% | activity at 1.5625 µM [5]: 114% | % activity [6]: 108.712% and 136.698% | % activity [7]: 112.163% and 121.853% | activity at 6.25 µM [7]: 112% | % activity [8]: 103.781% and 112.575% | activity at 12.5 µM [8]: 102% | % activity [9]: 89.4838% and 96.4929% | activity at 25 µM [9]: 91% | % activity [10]: 58.9163% and 64.3286% | activity at 50 µM [10]: 61.4% | % activity [11]: 16.5163% and 15.0372% and 1.856% | IC50: 73.4 µM | inhibitory effect towards 3CLpro enzymatic activity (in words): partial inhibitory effect | inhibition at 50 µM: 70% | inhibition at 100 µM: ~80%

CCC[C@H](NC(=O)[C@@H]1[C@H]2CCC[C@H]2CN1C(=O)[C@@H](NC(=O)[C@@H](NC(=O)c1cnccn1)C1CCCCC1)C(C)(C)C)C(=O)C(=O)NC1CC1 [Telaprevir]
percent enzymatic activity, individual values: 64.9635% and 42.7007% and 84.6715% | percent enzymatic activity, AVG: 64.1119%

CC(C)OC(=O)[C@H](C)N[P@](=O)(OC[C@H]1O[C@@H](n2ccc(=O)[nH]c2=O)[C@](C)(F)[C@@H]1O)Oc1ccccc1 [Sofosbuvir]
percent enzymatic activity, individual values: 76.4977% and 78.341% and 81.5668% | percent enzymatic activity, AVG: 78.8018%

CC(C)(C)NC(=O)N[C@H](C(=O)N1C[C@H]2[C@@H]([C@H]1C(=O)NC(CC1CCC1)C(=O)C(N)=O)C2(C)C)C(C)(C)C (stereo partly shown) [Boceprevir]
percent enzymatic activity, individual values: 54.8875% and 56.5635% and 59.0774% | percent enzymatic activity, AVG: 56.8428% | % activity [12]: 71.4825% | activity at 0.048828 µM [12]: 72.9% | % activity [1]: 78.9417% and 76.1445% | activity at 0.097656 µM [1]: 75.2% | % activity [2]: 74.7459% | activity at 0.195313 µM [2]: 73.3% | % activity [3]: 72.4149% | activity at 0.390625 µM [3]: 77.1% | % activity [4]: 70.5501% and 71.9487% | activity at 0.78125 µM [4]: 71% | % activity [5]: 78.9417% and 72.4149% | activity at 1.5625 µM [5]: 74.3% | % activity [6]: 84.5361% | activity at 3.125 µM [6]: 73.3% | activity at 6.25 µM [7]: 73.8% | % activity [8]: 70.0839% and 64.9557% | activity at 12.5 µM [8]: 61.2% | % activity [9]: 57.4965% and 56.0979% | activity at 25 µM [9]: 51.9% | % activity [10]: 41.6457% and 41.1795% | activity at 50 µM [10]: 37.4% | % activity [11]: 29.5245% and 31.8555% | activity at 100 µM [11]: 26.7% | inhibitory effect towards 3CLpro enzymatic activity (in words): partial inhibitory effect | inhibition at 50 µM: 45%

Cc1cc(C#N)cc(C)c1Oc1nc(Nc2ccc(C#N)cc2)nc(N)c1Br [Etravirine]
percent enzymatic activity, individual values: 85.8927% and 97.6243% and 93.0155% | percent enzymatic activity, AVG: 92.1775%

CCOC(=O)c1c(CSc2ccccc2)n(C)c2cc(Br)c(O)c(CN(C)C)c12 [Umifenovir]
percent enzymatic activity, individual values: 80.6569% and 86.8613% and 87.2263% | percent enzymatic activity, AVG: 84.9148%

Candicidin
percent enzymatic activity, individual values: 86.2745% and 80.3922% and 82.3529% | percent enzymatic activity, AVG: 83.0065%

CCCCCOc1ccc(-c2cc(-c3ccc(C(=O)N[C@H]4C[C@@H](O)[C@@H](O)NC(=O)[C@@H]5[C@@H](O)[C@@H](C)CN5C(=O)[C@H]([C@H](O)CC(N)=O)NC(=O)[C@H]([C@H](O)[C@@H](O)c5ccc(O)c(OS(=O)(=O)O)c5)NC(=O)[C@@H]5C[C@@H](O)CN5C(=O)[C@H]([C@@H](C)O)NC4=O)cc3)no2)cc1 [Micafungin] (X1-[Orn(4R-OH,5R-OH)]T[Hyp][hTyr(3S-OH,4S-OH,3'-OSO3H)][Gln(3R-OH)][Pro(3S-OH,4S-Me)]; lactam 1-C)
percent enzymatic activity, individual values: 37.5856% and 41.7364% and 49.3462% | percent enzymatic activity, AVG: 42.8894% | % activity [1]: 93.428% and 107.627% | activity at 0.097656 µM [1]: 103% | % activity [2]: 93.921% and 112.575% | activity at 0.195313 µM [2]: 95.4% | % activity [3]: 94.414% and 111.957% | activity at 0.390625 µM [3]: 94.9% | % activity [4]: 110.101% | activity at 0.78125 µM [4]: 101% | % activity [5]: 99.8373% and 115.049% | activity at 1.5625 µM [5]: 101% | % activity [6]: 103.781% and 119.998% | activity at 3.125 µM [6]: 105% | % activity [7]: 110.101% | activity at 6.25 µM [7]: 105% | % activity [8]: 103.915% | activity at 12.5 µM [8]: 92.9% | % activity [9]: 86.0326% and 95.2558% | activity at 25 µM [9]: 79.6% | % activity [10]: 43.6326% and 50.0419% and 67.4213% | % activity [11]: 20.9535% and 30.3087% | activity at 100 µM [11]: 19% | IC50: 47.6 µM | inhibitory effect towards 3CLpro enzymatic activity (in words): partial inhibitory effect | inhibition at 50 µM: 57% | inhibition at 100 µM: ~80%

COC(=O)N[C@H](C(=O)N1CCC[C@H]1c1nc2cc([C@H]3CC[C@H](c4cc5nc([C@@H]6CCCN6C(=O)[C@@H](NC(=O)OC)[C@@H](C)OC)[nH]c5cc4F)N3c3cc(F)c(N4CCC(c5ccc(F)cc5)CC4)c(F)c3)c(F)cc2[nH]1)[C@@H](C)OC [Pibrentasvir]
percent enzymatic activity, individual values: 62.0438% and 66.4234% and 69.3431% | percent enzymatic activity, AVG: 65.9367%
